# Laboratory results reported in patent US20200199102A1, “COMPOUNDS THAT PARTICIPATE IN COOPERATIVE BINDING AND USES THEREOF” (Revolution Medicines, Inc., priority 2017, published 2020).
# pIC50: −log10 of the molar value. Where a SMILES comes first, the peptide text is derived from it. [ ]: non-standard residue; d: D form. MeBmt = C/C=C/C[C@@H](C)[C@@H](O)[C@H](NC)C(=O)O; NMeY = CN[C@@H](Cc1ccc(O)cc1)C(=O)O; NMeF = CN[C@@H](Cc1ccccc1)C(=O)O; NMeI = CC[C@H](C)[C@H](NC)C(=O)O; NMeT = CN[C@H](C(=O)O)[C@@H](C)O; NMeL = CN[C@@H](CC(C)C)C(=O)O; dNMeV = CN[C@@H](C(=O)O)C(C)C; NMeNle = CCCC[C@H](NC)C(=O)O; Tle = CC(C)(C)[C@H](N)C(=O)O; NMeV = CN[C@H](C(=O)O)C(C)C; NMeA = CN[C@@H](C)C(=O)O; dNMeA = CN[C@H](C)C(=O)O; Abu = CC[C@H](N)C(=O)O; Sar = CNCC(=O)O
# Biological target: T1, Cyclophilin A (Homo sapiens, UniProt P62937)
# T1 construct: made in house
# Test: AlphaLISA inhibition of binding of biotinylated Cyclosporin A to FLAG tagged Cyclophilin A
# Settings: for % signal: AlphaLISA signal; for % signal / % inhibition of CsA binding to Cyclophilin A: test concentration not given; for pIC50: read-out: IC50 value of CsA binding to Cyclophilin A
# Method in brief: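 Inhibition of biotin-CsA binding to FLAG-tagged Cyclophilin A read by AlphaLISA (ex 680, em 615 nm). Working stocks were 6 nM biotinylated CsA and 25 nM FLAG-CypA; beads and compound were combined first for 30 min, then protein added for 60 min, all at room temperature in the dark, with DMSO and cyclosporin A controls.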
# T1 sequence (P62937 whole entry, species assumed): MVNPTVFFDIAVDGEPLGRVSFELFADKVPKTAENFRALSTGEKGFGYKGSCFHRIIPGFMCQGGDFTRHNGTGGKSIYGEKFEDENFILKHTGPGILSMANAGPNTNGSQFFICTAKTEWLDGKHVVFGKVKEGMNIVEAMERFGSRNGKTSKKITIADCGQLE
% signal [%],pIC50,% inhibition of CsA binding to Cyclophilin A [%],Compound
0.05,> 5.70,99.95,C/C=C/C[C@@H](C)[C@@H](O)[C@H]1C(=O)N[C@@H](CC)C(=O)N(C)CC(=O)N(C)[C@@H](C)C(=O)N[C@@H](C(C)(C)C)C(=O)N(C)[C@@H](C)C(=O)N[C@@H](CC(C)C)C(=O)N[C@H](C)C(=O)N(C)[C@@H](CC(C)C)C(=O)N(C)[C@@H](CC(C)C)C(=O)N(C)[C@@H](C(C)C)C(=O)N1C [Compound C70] (cyclo([MeBmt][Abu][Sar][NMeA][Tle][NMeA]L[dA][NMeL][NMeL][NMeV]))
5.17,> 5.70,94.83,C/C=C/C[C@@H](C)[C@@H](O)[C@H]1C(=O)N[C@@H](CC)C(=O)N(C)CC(=O)N(C)[C@H](C(C)C)C(=O)N[C@@H](C(C)C)C(=O)N(C)[C@@H](C)C(=O)N[C@@H](CC(C)C)C(=O)N[C@H](C)C(=O)N(C)[C@@H](CC(C)C)C(=O)N(C)[C@@H](CC(C)C)C(=O)N(C)[C@@H](C(C)C)C(=O)N1C [Compound C91] (cyclo([Abu][Sar][dNMeV]V[NMeA]L[dA][NMeL][NMeL][NMeV][MeBmt]))
−0.05,> 5.70,100.05,C/C=C/C[C@@H](C)[C@@H](O)[C@H]1C(=O)N[C@@H](CC)C(=O)N(C)CC(=O)N(C)[C@H](C)C(=O)N[C@@H](C(C)(C)C)C(=O)N(C)[C@@H](C)C(=O)N[C@@H](CC(C)C)C(=O)N[C@H](C)C(=O)N(C)[C@@H](CC(C)C)C(=O)N(C)[C@@H](CC(C)C)C(=O)N(C)[C@@H](C(C)C)C(=O)N1C [Compound C71] (cyclo([MeBmt][Abu][Sar][dNMeA][Tle][NMeA]L[dA][NMeL][NMeL][NMeV]))
6.90,> 5.70,93.10,C/C=C/C[C@@H](C)[C@@H](O)[C@H]1C(=O)N[C@@H](CC)C(=O)N(C)CC(=O)N(C)[C@H](C)C(=O)N[C@@H](C(C)C)C(=O)N(C)[C@@H](CC(C)C)C(=O)N[C@@H](CC)C(=O)N[C@H](C)C(=O)N(C)[C@@H](CC(C)C)C(=O)N(C)[C@@H](CC(C)C)C(=O)N(C)[C@@H](C(C)C)C(=O)N1C [Compound C95] (cyclo([Abu][Sar][dNMeA]V[NMeL][Abu][dA][NMeL][NMeL][NMeV][MeBmt]))
2.78,> 5.70,97.22,C/C=C/C[C@@H](C)[C@@H](O)[C@H]1C(=O)N[C@@H](CC)C(=O)N(C)CC(=O)N(C)[C@@H](Cc2ccccc2)C(=O)N[C@@H](C(C)(C)C)C(=O)N(C)[C@@H](C)C(=O)N[C@@H](CC(C)C)C(=O)N[C@H](C)C(=O)N(C)[C@@H](CC(C)C)C(=O)N(C)[C@@H](CC(C)C)C(=O)N(C)[C@@H](C(C)C)C(=O)N1C [Compound C72] (cyclo([MeBmt][Abu][Sar][NMeF][Tle][NMeA]L[dA][NMeL][NMeL][NMeV]))
0.65,> 5.70,,C/C=C/C[C@@H](C)[C@@H](O)[C@H]1C(=O)N[C@@H](CC)C(=O)N(C)CC(=O)N(C)[C@H](C)C(=O)N[C@@H](C(C)C)C(=O)N(C)[C@@H](C)C(=O)N[C@@H](CC(C)C)C(=O)N[C@H](C)C(=O)N(C)[C@@H](CC(C)C)C(=O)N(C)[C@@H](CC(C)C)C(=O)N(C)[C@@H](C(C)C)C(=O)N1C [Compound C83] (cyclo([MeBmt][Abu][Sar][dNMeA]V[NMeA]L[dA][NMeL][NMeL][NMeV]))
2.93,> 5.70,97.07,C/C=C/C[C@@H](C)[C@@H](O)[C@H]1C(=O)N[C@@H](CC)C(=O)N(C)CC(=O)N(C)[C@@H]([C@@H](C)O)C(=O)N[C@@H](CC(C)C)C(=O)N(C)[C@@H](C)C(=O)N[C@@H](C)C(=O)N[C@H](C)C(=O)N(C)[C@@H](CC(C)C)C(=O)N(C)[C@@H](CC(C)C)C(=O)N(C)[C@@H](C(C)C)C(=O)N1C [Compound C15] (cyclo([MeBmt][Abu][Sar][NMeT]L[NMeA]A[dA][NMeL][NMeL][NMeV]))
3.35,> 5.70,96.65,C/C=C/C[C@@H](C)[C@@H](O)[C@H]1C(=O)N[C@@H](CC)C(=O)N(C)CC(=O)N(C)[C@@H](CCCC)C(=O)N[C@@H](C(C)(C)C)C(=O)N(C)[C@@H](C)C(=O)N[C@@H](CC(C)C)C(=O)N[C@H](C)C(=O)N(C)[C@@H](CC(C)C)C(=O)N(C)[C@@H](CC(C)C)C(=O)N(C)[C@@H](C(C)C)C(=O)N1C [Compound C80] (cyclo([MeBmt][Abu][Sar][NMeNle][Tle][NMeA]L[dA][NMeL][NMeL][NMeV]))

# Further lines, the molecule ahead of its results:
Compound,% signal [%],pIC50,% inhibition of CsA binding to Cyclophilin A [%]
C/C=C/C[C@@H](C)[C@@H](O)[C@H]1C(=O)N[C@@H](CC)C(=O)N(C)CC(=O)N(C)[C@@H]([C@@H](C)O)C(=O)N[C@@H](C(C)C)C(=O)N(C)[C@@H](CC(C)C)C(=O)N[C@@H](CC(C)C)C(=O)N[C@H](C)C(=O)N(C)[C@@H](CC(C)C)C(=O)N(C)[C@@H](CC(C)C)C(=O)N(C)[C@@H](C(C)C)C(=O)N1C [Compound C51] (cyclo([MeBmt][Abu][Sar][NMeT]V[NMeL]L[dA][NMeL][NMeL][NMeV])),3.38,> 5.70,96.62
C/C=C/C[C@@H](C)[C@@H](O)[C@H]1C(=O)N[C@@H](CC)C(=O)N(C)CC(=O)N(C)[C@@H](Cc2ccc(O)cc2)C(=O)N[C@@H](CC(C)C)C(=O)N(C)[C@@H](CC(C)C)C(=O)N[C@@H](CC(C)C)C(=O)N[C@H](C)C(=O)N(C)[C@@H](CC(C)C)C(=O)N(C)[C@@H](CC(C)C)C(=O)N(C)[C@@H](C(C)C)C(=O)N1C [Compound C64] (cyclo([MeBmt][Abu][Sar][NMeY]L[NMeL]L[dA][NMeL][NMeL][NMeV])),28.50,> 5.70,71.50
C/C=C/C[C@@H](C)[C@@H](O)[C@H]1C(=O)N[C@@H](CC)C(=O)N(C)CC(=O)N(C)[C@@H](CC(C)C)C(=O)N[C@@H](C(C)C)C(=O)N(C)[C@@H](CC(C)C)C(=O)N[C@@H](CC)C(=O)N[C@H](C)C(=O)N(C)[C@@H](CC(C)C)C(=O)N(C)[C@@H](CC(C)C)C(=O)N(C)[C@@H](C(C)C)C(=O)N1C [Compound C98],4.70,> 5.70,95.30
C/C=C/C[C@@H](C)[C@@H](O)[C@H]1C(=O)N[C@@H](CC)C(=O)N(C)CC(=O)N(C)[C@@H](Cc2ccccc2)C(=O)N[C@@H](CC(C)C)C(=O)N(C)[C@@H](CC(C)C)C(=O)N[C@@H](CC(C)C)C(=O)N[C@H](C)C(=O)N(C)[C@@H](CC(C)C)C(=O)N(C)[C@@H](CC(C)C)C(=O)N(C)[C@@H](C(C)C)C(=O)N1C [Compound C60] (cyclo([MeBmt][Abu][Sar][NMeF]L[NMeL]L[dA][NMeL][NMeL][NMeV])),52.68,> 5.70,47.32
C/C=C/C[C@@H](C)[C@@H](O)[C@H]1C(=O)N[C@@H](CC)C(=O)N(C)CC(=O)N(C)[C@@H](Cc2ccccc2)C(=O)N[C@@H](C(C)C)C(=O)N(C)[C@@H](C)C(=O)N[C@@H](CC(C)C)C(=O)N[C@H](C)C(=O)N(C)[C@@H](CC(C)C)C(=O)N(C)[C@@H](CC(C)C)C(=O)N(C)[C@@H](C(C)C)C(=O)N1C [Compound C84] (cyclo([MeBmt][Abu][Sar][NMeF]V[NMeA]L[dA][NMeL][NMeL][NMeV])),6.81,> 5.70,93.19
C/C=C/C[C@@H](C)[C@@H](O)[C@H]1C(=O)N[C@@H](CC)C(=O)N(C)CC(=O)N(C)CC(=O)N[C@@H](C)C(=O)N(C)CC(=O)N[C@@H](C)C(=O)N[C@H](C)C(=O)N(C)[C@@H](CC(C)C)C(=O)N(C)[C@@H](CC(C)C)C(=O)N(C)[C@@H](C(C)C)C(=O)N1C [Compound C21] (cyclo([MeBmt][Abu][Sar][Sar]A[Sar]A[dA][NMeL][NMeL][NMeV])),31.08,> 5.70,68.92
C/C=C/C[C@@H](C)[C@@H](O)[C@H]1C(=O)N[C@@H](CC)C(=O)N(C)CC(=O)N(C)[C@@H]([C@@H](C)O)C(=O)N[C@@H](C(C)C)C(=O)N(C)[C@@H](C)C(=O)N[C@@H](C)C(=O)N[C@H](C)C(=O)N(C)[C@@H](CC(C)C)C(=O)N(C)[C@@H](CC(C)C)C(=O)N(C)[C@@H](C(C)C)C(=O)N1C [Compound C7] (cyclo([MeBmt][Abu][Sar][NMeT]V[NMeA]A[dA][NMeL][NMeL][NMeV])),2.65,> 5.70,97.35
C/C=C/C[C@@H](C)[C@@H](O)[C@H]1C(=O)N[C@@H](CC)C(=O)N(C)CC(=O)N(C)[C@@H](Cc2ccccc2)C(=O)N[C@@H](C(C)C)C(=O)N(C)[C@@H](CC(C)C)C(=O)N[C@@H](CC(C)C)C(=O)N[C@H](C)C(=O)N(C)[C@@H](CC(C)C)C(=O)N(C)[C@@H](CC(C)C)C(=O)N(C)[C@@H](C(C)C)C(=O)N1C [Compound C48] (cyclo([MeBmt][Abu][Sar][NMeF]V[NMeL]L[dA][NMeL][NMeL][NMeV])),15.72,> 5.70,84.28
C/C=C/C[C@@H](C)[C@@H](O)[C@H]1C(=O)N[C@@H](CC)C(=O)N(C)CC(=O)N(C)[C@@H]([C@@H](C)CC)C(=O)N[C@@H](C(C)C)C(=O)N(C)[C@@H](C)C(=O)N[C@@H](C)C(=O)N[C@H](C)C(=O)N(C)[C@@H](CC(C)C)C(=O)N(C)[C@@H](CC(C)C)C(=O)N(C)[C@@H](C(C)C)C(=O)N1C [Compound C1] (cyclo([MeBmt][Abu][Sar][NMeI]V[NMeA]A[dA][NMeL][NMeL][NMeV])),0.56,> 5.70,99.44
C/C=C/C[C@@H](C)[C@@H](O)[C@H]1C(=O)N[C@@H](CC)C(=O)N(C)CC(=O)N(C)[C@@H]([C@@H](C)O)C(=O)N[C@@H](C)C(=O)N(C)CC(=O)N[C@@H](C)C(=O)N[C@H](C)C(=O)N(C)[C@@H](CC(C)C)C(=O)N(C)[C@@H](CC(C)C)C(=O)N(C)[C@@H](C(C)C)C(=O)N1C [Compound C23] (cyclo([MeBmt][Abu][Sar][NMeT]A[Sar]A[dA][NMeL][NMeL][NMeV])),1.28,> 5.70,98.72
